Results from patent publication US10947188B2, “Small molecule ferroptosis inducers” (THE TRUSTEES OF COLUMBIA UNIVERSITY IN THE CITY OF NEW YORK, priority 2016, dated 2021).

Test system: BJeLR
Assay: Modulatory profiling: Alamar Blue viability, lethal compound cotreated with death modulator (EC50, AUC)
Format: cell-based, human
Design: AUC, modulator BJ.Gd3+ / AUC, modulator BJ.LNAME / AUC, modulator BJ.Lmin / AUC, modulator BJ.3MA / AUC, modulator BJ.ALLN / AUC, modulator BJ.Boc D / AUC, modulator BJ.CHX / AUC, modulator BJ.Co2+ / AUC, modulator BJ.Nec-1 / AUC, modulator BJ.Pepstatin / AUC, modulator BJ.TLCK / AUC, modulator BJ.atoc / AUC, modulator BJ.trolox / AUC, modulator BJ.zVAD: unit not given beside the values
Conditions: for AUC, modulator BJ.3MA / AUC, modulator BJ.ALLN / AUC, modulator BJ.Boc D / AUC, modulator BJ.CHX / AUC, modulator BJ.Co2+ / AUC, modulator BJ.DPQ / AUC, modulator BJ.Gd3+ / AUC, modulator BJ.LNAME / AUC, modulator BJ.Lmin/NAD+ / AUC, modulator BJ.Lmin / AUC, modulator BJ.NAD+ / AUC, modulator BJ.NMMA / AUC, modulator BJ.Nec-1 / AUC, modulator BJ.Pepstatin / AUC, modulator BJ.TLCK / AUC, modulator BJ.atoc / AUC, modulator BJ.trolox / AUC, modulator BJ.zVAD: BJeLR cells, modulatory profile value (AUC); for AUC, modulator BJ.3MA: lethal compound cotreated with modulator 3MA; for AUC, modulator BJ.ALLN: lethal compound cotreated with modulator ALLN; for AUC, modulator BJ.Boc D: lethal compound cotreated with modulator Boc D; for AUC, modulator BJ.CHX: lethal compound cotreated with modulator CHX; for AUC, modulator BJ.Co2+: lethal compound cotreated with modulator Co2+; for AUC, modulator BJ.DPQ: lethal compound cotreated with modulator DPQ; for AUC, modulator BJ.Gd3+: lethal compound cotreated with modulator Gd3+; for AUC, modulator BJ.LNAME: lethal compound cotreated with modulator LNAME; for AUC, modulator BJ.Lmin/NAD+: lethal compound cotreated with modulator Lmin/NAD+; for AUC, modulator BJ.Lmin: lethal compound cotreated with modulator Lmin; for AUC, modulator BJ.NAD+: lethal compound cotreated with modulator NAD+; for AUC, modulator BJ.NMMA: lethal compound cotreated with modulator NMMA; for AUC, modulator BJ.Nec-1: lethal compound cotreated with modulator Nec-1; for AUC, modulator BJ.Pepstatin: lethal compound cotreated with modulator Pepstatin; for AUC, modulator BJ.TLCK: lethal compound cotreated with modulator TLCK; for AUC, modulator BJ.atoc: lethal compound cotreated with modulator atoc; for AUC, modulator BJ.trolox: lethal compound cotreated with modulator trolox; for AUC, modulator BJ.zVAD: lethal compound cotreated with modulator zVAD; for EC50: Homo sapiens, BJeLR, 48 h
[1] = cotreated with antioxidant Trolox
[2] = cotreated with antioxidant atoc
[3] = cotreated with iron-chelator Lmim

| SMILES | AUC, modulator BJ.3MA | AUC, modulator BJ.ALLN | AUC, modulator BJ.Boc D | AUC, modulator BJ.CHX | AUC, modulator BJ.Co2+ | AUC, modulator BJ.DPQ | AUC, modulator BJ.Gd3+ | AUC, modulator BJ.LNAME | AUC, modulator BJ.Lmin/NAD+ | AUC, modulator BJ.Lmin | AUC, modulator BJ.NAD+ | AUC, modulator BJ.NMMA | AUC, modulator BJ.Nec-1 | AUC, modulator BJ.Pepstatin | AUC, modulator BJ.TLCK | AUC, modulator BJ.atoc | AUC, modulator BJ.trolox | AUC, modulator BJ.zVAD | further results |
| --- | --- | --- | --- | --- | --- | --- | --- | --- | --- | --- | --- | --- | --- | --- | --- | --- | --- | --- | --- |
| CC1CC(C)(C)Nc2ccc(OC(=O)c3ccco3)cc21 (stereo not shown) [CIL4] | 0.08316 | −0.003083 | −0.01828 | −0.009993 | −0.1747 | −0.003969 | 0.05533 | −0.01288 | 0.08674 | −0.002867 | 0.02731 | −0.01566 | 0.1015 | 0.08231 | 0.06929 | 0.004307 | 0.008406 | 0.01242 |  |
| C=C(C)[C@H]1Cc2c(ccc3c2O[C@@H]2COc4cc(OC)c(OC)cc4[C@@H]2C3=O)O1 [Rotenone] | −0.0266 | −0.03435 | −0.01674 | 0.1066 | 0.0838 | −0.02278 | 0.01421 | −0.01131 | 0.1439 | 0.06492 | 0.1037 | 0.005801 | −0.02888 | 0.02007 | −0.02169 | 0.05116 | −0.01075 | 0.04408 |  |
| CCCCS(=O)(=O)/C=C\C=C/S(=O)(=O)CCCC [CIL49] | 0.04504 | −0.05864 | −0.0257 | 0.1692 | 0.009716 | −0.002084 | −0.006048 | −0.007857 | 0.07067 | 0.03689 | 0.02344 | 0.006898 | 0.001972 | 0.02852 | −0.03549 | −0.008324 | −0.02337 | −0.001762 |  |
| N/C(=N\OC(=O)C12CC3CC(CC(C3)C1)C2)c1ccccc1 [CIL41] | 0.117 | −0.08211 | −0.06374 | −0.0571 | −0.02378 | 0.02161 | −0.006767 | 0.00307 | 0.1504 | 0.2032 | −0.0198 | 0.04219 | 0.09368 | −0.03128 | −0.02463 | 0.2729 | 0.1871 | 0.03607 | EC50 (DMSO): 3170 nM; EC50 (cotreated with Lmim_NAD): 22600 nM; EC50 [1]: 23200 nM; EC50 [2]: 36600 nM; EC50 [3]: 22400 nM |
| O=C(CCl)N(c1ccc(Cl)cc1)c1c[nH]c2ccccc12 [CIL75] | 0.04653 | 0.01301 | 0.03092 | −0.009103 | 0.2049 | −1.616E−05 | 0.0459 | 0.01184 | 0.2292 | 0.146 | −0.01643 | −0.01449 | 0.1883 | 0.07275 | 0.2311 |  |  |  | EC50 (DMSO): 59.8 nM; EC50 (cotreated with Lmim_NAD): 314 nM; EC50 [1]: 1100 nM; EC50 [2]: 1040 nM; EC50 [3]: 341 nM |
| COc1ccc(N(C(=O)CCl)C(C(=O)NCCc2ccccc2)c2cccs2)cc1 (stereo not shown) [DPI4] | 0.0813 | −0.07596 | −0.0206 | −0.04482 | 0.116 | 0.02148 | 0.06864 | 0.00317 | 0.1443 | 0.1443 | 0.03153 | 0.004961 | 0.1295 | 0.03966 | 0.1612 | 0.2611 | 0.2547 | −0.02179 |  |
| C[C@@H]1C[C@@H]([C@H](O)CC2CC(=O)NC(=O)C2)C(=O)[C@@H](C)C1 [cycloheximide, Cycloheximide, reference compound] | 0.03847 | 0.09461 | 0.02242 | 0.3613 | 0.2375 | 0.02122 | 0.02359 | 0.007696 | 0.1057 | 0.0775 | 0.08265 | 0.002535 | 0.03326 | 0.01475 | 0.03153 | 0.0001672 | 0.01856 | 0.02186 |  |
| CC(C)[C@@H]1NC(=O)[C@H](C)OC(=O)[C@@H](C(C)C)NC(=O)[C@@H](C(C)C)OC(=O)[C@H](C(C)C)NC(=O)[C@H](C)OC(=O)[C@@H](C(C)C)NC(=O)[C@@H](C(C)C)OC(=O)[C@H](C(C)C)NC(=O)[C@H](C)OC(=O)[C@@H](C(C)C)NC(=O)[C@@H](C(C)C)OC1=O [Vatinomycin] | 0.03326 | 0.02063 | 0.02046 | 0.3573 | 0.09595 | −0.02201 | −0.0004394 | −0.01323 | 0.1525 | −0.007847 | 0.1101 | −0.02634 | 0.01734 | 0.04946 | 0.006602 | 0.285 | 0.06867 | 0.03769 |  |
| COc1nn(-c2ccccc2)c(=O)c(Cl)c1Cl [CIL23] | −0.01613 | −0.04561 | −0.01959 | −0.02303 | −0.01594 | 0.004379 | 0.03265 | −0.02129 | 0.004125 | −0.01617 | 0.005104 | −0.01242 | 0.03269 | −0.001663 | −0.007806 | 0.002315 | −0.02152 | 0.04691 |  |
| CCCS(=O)(=O)c1nnnn1-c1cccc(OC)c1 [CIL15] | 0.02761 | −0.06757 | −0.05321 | 0.1287 | 0.0961 | −0.01238 | 0.02535 | −0.02453 | −0.01164 | −0.0004619 | 0.01287 | −0.03623 | 0.02391 | 0.0256 | −0.005629 | −0.01149 | −0.01026 | 0.01243 |  |
| CC1=CC(C)(C)Nc2ccc(OC(=O)c3cccnc3)cc21 [CIL47] | 0.1505 | −0.02628 | 0.05397 | −0.0269 | −0.1379 | 0.06122 | −0.02875 | −0.02479 | −0.01437 | −0.01696 | −0.06356 | 0.04023 | −0.02203 | 0.05454 | −0.03768 | 0.03519 | −0.02806 | −0.01497 |  |
| CC1CC2=C(CC1CNCCCN(C)C)C(C)(C)CCC2 (stereo not shown) [CIL26] | 0.05124 | −0.0584 | −0.05574 | −0.001733 | 0.04871 | 0.01829 | 0.004541 | −0.03322 | 0.09111 | −0.0139 | 0.005678 | 0.006781 | −0.03974 | 0.02268 | −0.06133 | 0.05008 | 0.03147 | −0.003259 |  |
| COc1ccc(-n2nnnc2S(=O)(=O)CC(=O)N2CCCCC2)cc1 [CIL48] | 0.09789 | −0.1008 | −0.02225 | 0.1619 | 0.05392 | 0.01112 | −0.004307 | −0.01039 | 0.06326 | −0.02664 | −0.04246 | 0.01412 | −0.04434 | −0.01271 | −0.01339 | 0.01164 | −0.03407 | −0.01807 |  |
